Experimental data: patent US9012674B1, “Ethyl (2R)-2-acetamido-3-(4-methylbenzoylsulfanyl)propanoate and uses thereof” (Promentis Pharmaceuticals, Inc., priority 2013, dated 2015)

Legend:
[1] = tested on: human glial cells from brain astrocytoma (1321N1); assay: 14C-cystine uptake in human astrocytoma cell culture; type: cell-based; conditions: 100 μM (most effective concentration); three hour incubation; versus untreated control; average of three experiments
Experimental: The goal of these experiments was to determine ^14C-cystine uptake. The experiments were conducted as follows.
The screening of the compound was performed using an in vitro culture system of human glial cells from brain astrocytoma (1321N1). Cells were plated on 24 well plates coated with poly-D-lysine and laminin and grown in a balanced salt solution supplemented with 5% heat inactivated horse serum, 5% fetal bovine serum, 2 mM glutamine and glucose (total 21 mM). Cultures were maintained in humidified 5% CO2 incubators at 37° C. for 3-4 days before experiments were performed, at this time the cultures has formed a single confluent layer. For experiments, cultures were washed 3 times into a Na-free HEPES and HCO3^− buffered balanced salt solution. After 1 hour the test compounds are added. Following a three hour incubation, ^14C-cystine (0.025 mCi/mL) was then added for 20 minutes. Following the ^14C-cystine exposure, cultures were washed 3 times with ice cold HEPES buffered saline solution and dissolved in 250 μl sodium dodecyl sulfate (0.1%). An aliquot (200 μl) was removed and added to scintillation fluid for counting. Values were normalized to ^14C-cystine uptake in untreated controls on the same experimental plate. […]

[2] = tested on: human glial cells from brain astrocytoma (1321N1); assay: 3H-glutamate release in human astrocytoma cell culture; type: cell-based; conditions: 300 μM (most effective concentration); at 3 hours; versus untreated control
Experimental: This assay also uses the cell culture system of human glial cells from brain astrocytoma (1321N1) described above. Initially, cells are washed with HBBSS, and ^3H-glutamate is added (PerkinElmer: 1 mCi/mL stock solution is diluted (30 μL+500 μL HBBSS) and 10 μL of diluted radiolabel is added to each well). Following a 1 hour incubation to load the cells with the labeled glutamate, the cells are washed again with HBBSS, and the drug is added. At 30, 90, and 180 minutes, 50 μL of extracellular media is sampled from each well and is measured using a Beckman LS 6500 scintillation counter.
Results of the ^14C-cystine uptake and ^3H-glutamate release by astrocytes treated with differing concentrations of Pro-4051, are presented in FIG. 1, as a percentage of the untreated control. […] This graph represents an average of three experiments run.

Solubility data = type: physicochemical; conditions: according to solubility data; read-out: concentration above which compound is not in solution (solubility)

solubility (Solubility data): ≤ 316 µM
SMILES: CCOC(=O)[C@H](CSC(=O)c1ccc(C)cc1)NC(C)=O [Pro-4051, ethyl (2R)-2-acetamido-3-(4-methylbenzoylsulfanyl)propanoate]
decrease in 14C-cystine uptake [1]: approximately 28%
increase in 3H-glutamate release [2]: approximately 100%
